# Values joined by “and” are separate entries in the source; they are usually repeats but may differ in a detail not shown here. Identical values can stand only once.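 In this assay, cells in 96-well plates receive the compound at five concentrations for 48 hours. Endpoints are linearly interpolated between the surrounding concentrations. Abbreviation: GI50, concentration required for 50% inhibition of growth. The concentration for full growth arrest is given as TGI.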
# Test system: T-47D breast
# Experiment: inhibition of tumour cell growth, NCI panel, 48 h
SMILES,GI50,TGI
Oc1ccc2ccccc2c1N=Nc1nccs1,1.71 µM,12.6 µM
CC(=O)OCCN1c2ccccc2Sc2cnccc21,,> 10 µM
COc1ccc(/C(COc2c(-c3ccccc3)oc3ccccc3c2=O)=N\O)cc1,13.5 µM,41.6 µM
Cn1c(=O)c2[nH]c(SCc3ccccn3)nc2n(C)c1=S,,> 100 µM
COc1cc2c(c(O)c1Br)C(=O)c1c(O)cc(C[C@H](C)O)cc1[C@H]2[C@H]1c2cc(C[C@H](C)O)cc(O)c2C(=O)c2c1cc(OC)c(Br)c2O,2.04 µM and 4.09 µM,13.2 µM and 23.4 µM
COc1ccc(-c2cc(=O)c3ccc(O)cc3o2)cc1OC,,> 100 µM
CC[C@]1(O)C[C@@H]2CN(CCc3c([nH]c4ccccc34)[C@@](C(=O)OC)(c3cc4c(cc3OC)N(C)[C@H]3[C@@](O)(C(=O)OC)[C@H](OC(C)=O)[C@]5(CC)C=CCN6CC[C@]43[C@@H]65)C2)C1,8.59 µM,> 100 µM
N#CSc1c[nH]c2cccc(/C=C/C(=O)/C=C(/C=C/c3cccc4[nH]cc(SC#N)c34)OB(F)F)c12,0.358 µM,6.2 µM
C=CC(=O)N1CC2(CCN(c3nc(OC4CCN(CCCOC)CC4)nc4c(OCC(F)(F)F)c(-c5c(C)ccc6[nH]ncc56)c(C5CC5)cc34)CC2)C1,2.71 µM,9.46 µM
FC(F)(F)c1cccc(Nc2nccc(-c3cnn4nc(-c5ccccc5)ccc34)n2)c1,8.33 µM,> 25 µM
CC[C@@H]1C(=O)N(C)c2cnc(Nc3ccc(C(=O)NC4CCN(C)CC4)cc3OC)nc2N1C1CCCC1,0.0718 µM and 0.157 µM,> 10 µM and 6.27 µM
C=C1C(=O)O[C@H]2[C@H]1CC/C(COC(=O)c1ccc3ccccc3c1)=C\CC[C@@]1(C)O[C@@H]21,1.03 µM,2.73 µM
CC[CH2][Sn]([CH2]CC)([O]C(=O)c1cccnc1SC)[O][Sn]([CH2]CC)([CH2]CC)[O]C(=O)c1cccnc1SC,0.287 µM,1.52 µM
CC(C)c1nc(CN(C)C(=O)N[C@H](C(=O)N[C@@H](Cc2ccccc2)C[C@H](O)[C@H](Cc2ccccc2)NC(=O)OCc2cncs2)C(C)C)cs1,21.7 µM,73 µM

# Test system: HOP-92 NSCLC
# Experiment: inhibition of tumour cell growth, NCI panel, 48 h
SMILES,GI50,TGI
CN1CCN(C(=O)OCc2nc3c(N4CCOCC4)nc(Cl)nc3n2C)CC1,0.675 µM,2.23 µM
COC(=O)[C@]12CC[C@@H](C)[C@H](C)[C@@H]1C1=CC[C@@H]3[C@@]4(C)C/C(=N\O)[C@H](O)[C@@]5(C)COC(=C45)C[C@@]3(C)[C@]1(C)CC2,2.98 µM,10.3 µM
Oc1c(CN2CCC(N3CCCCC3)CC2)cc(Cc2cc(CN3CCC(N4CCCCC4)CC3)c(O)c3ncccc23)c2cccnc12,3.38 µM,21 µM
Cn1c2ccccc2c2c(-c3ccccc3)[n+]3ccncc3nc21,96.6 µM,> 100 µM
COc1ccc(-c2cnnc3c(-c4cccc(C(F)(F)F)c4)cnn23)cc1,,2.85 µM
NC(=O)c1ccc(I)c(N)c1,> 100 µM,> 100 µM
CC/C(=C(/c1ccc(O)cc1)c1ccc(OCCNC)cc1)c1ccccc1,1.18 µM,3.72 µM
O=C(/C(Br)=C/c1ccccc1)c1ccccc1,1.87 µM,4.28 µM
C=C1C(=O)O[C@H]2[C@H]1CC/C(Cn1cc(-c3ccc(OC)cc3)nn1)=C\CC[C@@]1(C)O[C@@H]21,1.13 µM,2.69 µM
O=C1CCCCN1CCCCC#Cc1ccccc1C#Cc1ccc([N+](=O)[O-])cc1,4.39 µM,27.4 µM
CCOc1cc2c(Cl)ncnc2c(OCC)c1OCC,3.67 µM,14.2 µM
Oc1ccc2ccccc2c1N=Nc1nccs1,0.389 µM,> 48.8 µM
CC(=O)OCCN1c2ccccc2Sc2cnccc21,,> 10 µM
COc1ccc(/C(COc2c(-c3ccccc3)oc3ccccc3c2=O)=N\O)cc1,> 50 µM,> 50 µM
Cn1c(=O)c2[nH]c(SCc3ccccn3)nc2n(C)c1=S,,> 100 µM
COc1cc2c(c(O)c1Br)C(=O)c1c(O)cc(C[C@H](C)O)cc1[C@H]2[C@H]1c2cc(C[C@H](C)O)cc(O)c2C(=O)c2c1cc(OC)c(Br)c2O,5.31 µM and 9.42 µM,32.3 µM and 39.6 µM
COc1ccc(-c2cc(=O)c3ccc(O)cc3o2)cc1OC,,> 100 µM
CC[C@]1(O)C[C@@H]2CN(CCc3c([nH]c4ccccc34)[C@@](C(=O)OC)(c3cc4c(cc3OC)N(C)[C@H]3[C@@](O)(C(=O)OC)[C@H](OC(C)=O)[C@]5(CC)C=CCN6CC[C@]43[C@@H]65)C2)C1,< 0.01 µM,
N#CSc1c[nH]c2cccc(/C=C/C(=O)/C=C(/C=C/c3cccc4[nH]cc(SC#N)c34)OB(F)F)c12,0.309 µM,1.45 µM

# From PubChem BioAssay (NCI)
